Here are results for 11 compounds from US20180284123A1, “BARCODED RAPID ASSAY PLATFORM USEFUL FOR EFFICIENT ANALYSIS OF CANDIDATE MOLECULES AND METHODS OF MAKING AND USING THE PLATFORM” (California Institute of Technology, priority 2017, published 2018).

This assay concerns the target T1, KRAS (Homo sapiens, UniProt P01116).
T1 construct: His6-tagged human KRas Isoform 4B (residues 1-169); His6; made in house; host or cells: E. coli BL21(DE3), PQE80 vector
Description: B-RAP surface immunofluorescent assay, PCC ligand KRas EC50. Format: binding. To be noted: for Avg F635, Full Centroid / Avg F635, Full Lane / avg F635, Left Part Centroid / avg F635, Middle Part Centroid / avg F635, Right Part Centroid: 10 μM KRas well of plate #1, pixel by pixel; for avg F635, Left Part Centroid: left part of centroid; for avg F635, Middle Part Centroid: middle part of centroid; for avg F635, Right Part Centroid: right part of centroid; for EC50: 13-point KRas concentration series, each point in decaplicate, Hill coefficient=1. As to the method:
The barcode patterned microchip surface was partitioned into 16 individual microwells using a pre-fabricated PDMS slab. Individual biotinylated PCC candidates were complexed to specific SAC-DNA conjugates, combined into a cocktail, and then self-assembled, via DNA hybridization, onto designated barcode stripes (FIGS. 2-4). Incubation with a specific concentration of the target protein preceded incubation with a primary capture antibody and then a fluorophore-conjugated secondary detection antibody. During assay execution, each well represents a different target concentration or assay condition. Once developed, the fluorescence of the barcodes is digitized using a GenePix 4400A array scanner, with an excitation laser power optimized to a power level of 40% (60 W), which maximizes detection sensitivity while also minimizing signal saturation. Data extraction occurs using 10 μm radius circles, taken along the length of a barcode stripe. A fluorescence signal representing the average of all the pixels within a given circle is collected. A total of ten circles (data-blocks) are measured along a 180 μm span of the middle portion for each individual barcode lane in a given well. 10 μM KRas protein gave an average F635 of 47,868.7, with a standard deviation of 4154.53. 1 μM KRas protein gave an average F635 of 11437.6, with a standard deviation of 1602.202. 100 nM KRas protein gave an average F635 of 1780.6, with a standard deviation of 236.38. This illustrates the intensity across a stripe compared to the intensity from the data-block extraction. After extraction the data is background corrected. The background signal arises from (a) non-specific binding of the primary and secondary antibodies (independent of [KRas]), but can vary across different barcode stripes), and (b) non-specific binding of KRas protein ([KRas] dependent). Background (a) was assessed by measuring the average signal in the null protein well for each stripe. Background (b) was assessed by measuring the average fluorescence for the dummy ligand (Biotin* probe) that was in each well. The background subtracted data was then graphed in Graphpad Prism 7 and fitted to a sigmoidal curve (Hill coefficient=1).
Measurement of PCC Ligand KRas EC50 with the Barcode Rapid Assay Platform
Protein Incubation Buffer: Tris-buffered saline (TBS)+0.05% Tween20 (TBST)
A pre-fabricated PDMS template was aligned onto the DNA barcode microchip, and the microchip was taped into a 10 cm petri dish. The wells on the platform were wet with 50 μL PBST before filling with blocking buffer and placing into a 37° C. incubator for 1 hr. Concurrently, 40 μL 1% BSA in PBS solutions containing 750 nM of a SAC-DNA conjugate and 3.75 μM of one biotinylated PCC ligand or biotin-A20-Cy3 blank were prepared for each SAC-DNA conjugate. The biotinylated ligands were allowed to complex with the SAC protein for one hour before pooling the SAC-DNA-ligand solutions (final [SAC-DNA-ligand conjugates]=50 nM). The blocking buffer was aspirated and each well was loaded with the SAC-DNA-ligand conjugates cocktail for hybridization with the DNA barcode at 37° C. for one hour. The wells were washed with PBST (3×) before loading serially diluted solutions of KRas protein in protein buffer (0 to 400 μM). After shaking at RT for one hour, the wells were rinsed with PBST (5×), making sure to pipet up/down with the first addition of PB ST. A (100:1) dilution of CST rabbit anti-Ras Ab (#39655) in 1° ab buffer was added to each well before shaking at RT for one hour. After rinsing the wells with PBST (3×), the wells were loaded with a (200:1) dilution of Abcam goat anti-rabbit-Alexafluor 647 linked ab (ab150079) in 2° ab buffer before shaking at RT for one hour. A final rinse of the wells with PBST (3×) proceeded peeling off the PDMS slab from the barcode microchip and dipping the barcode into the following solutions: PBS, (1:1) PBS: MQ H2O, MQ H2O (2×). […]

Usually EC50 stands for the concentration that produces a half-maximal response. A lower EC50 goes with an effect from little substance.

Structures are written as SMILES. Numbered stars: 1 amine (or outer) side, 2 acyl side, 3 side chain; on linkers, the order of the positions; unused ones are H or OH. Bridge positions count the residues as written; N and C are the ends. Square brackets hold non-standard residues; d marks the D form. Triazole bridges read from a SMILES are 1,4-linked. Peptide text beside a SMILES is read from it. * marks the point of attachment. Biotin = O=C1N[C@H]2[C@H](CS[C@H]2CCCCC(=O)*)N1; Lys(N3) = [N-]=[N+]=NCCCC[C@H](N)C(=O)O; Ethylenediamine = C(CN[*:2])N[*:1]; PEG5 = NCCOCCOCCOCCOCCOCCC(=O)O; Pra = C#CC[C@H](N)C(=O)O

T1 sequence (P01116 1-169 isoform P01116-2): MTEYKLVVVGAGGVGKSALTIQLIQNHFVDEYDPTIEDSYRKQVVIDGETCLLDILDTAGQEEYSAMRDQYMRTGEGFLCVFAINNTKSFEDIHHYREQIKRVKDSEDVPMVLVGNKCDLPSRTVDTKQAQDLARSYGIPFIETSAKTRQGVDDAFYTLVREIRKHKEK

For `CC(C)[C@@H]1NC(=O)[C@@H](N)Cc2cn(nn2)CCCC[C@@H](C(=O)NCCOCCOCCOCCOCCOCCC(=O)NCCNC(=O)CCCC[C@@H]2SC[C@@H]3NC(=O)NC32)NC(=O)[C@H](Cc2ccc(O)cc2)NC(=O)[C@@H]2CCCN2C(=O)[C@H](C(C)C)NC(=O)[C@H](CCC(N)=O)NC1=O` (stereo partly shown) [Ligand L7, VQVPY], the “Avg F635, Full Centroid” value stood at 53496; the “Avg F635, Full Lane” value amounted to 48537; the “avg F635, Left Part Centroid” value was 48599; the “avg F635, Middle Part Centroid” value came to 54620. In addition, the “avg F635, Right Part Centroid” value was determined as 57411.

`CC(C)[C@@H]1NC(=O)[C@@H](N)Cc2cn(nn2)CCCC[C@@H](C(=O)NCCOCCOCCOCCOCCOCCC(=O)NCCNC(=O)CCCC[C@@H]2SC[C@@H]3NC(=O)N[C@@H]32)NC(=O)[C@H](Cc2ccc(O)cc2)NC(=O)[C@@H]2CCCN2C(=O)[C@H](C(C)C)NC(=O)[C@H]([C@@H](C)O)NC1=O` [Ligand L6] (H-[Pra]VTVPY[Lys(N3)][PEG5]-{Ethylenediamine-Biotin}; triazole 1-7): the “Avg F635, Full Centroid” value was found to be 17836; the “Avg F635, Full Lane” value is given as 15968; the “avg F635, Left Part Centroid” value amounted to 15645; the “avg F635, Middle Part Centroid” value is reported as 19382. Also, the “avg F635, Right Part Centroid” value was determined as 18546.

Regarding `CCC(C)[C@@H]1NC(=O)CNC(=O)[C@H](Cc2cnc[nH]2)NC(=O)[C@@H](N)Cc2cn(nn2)CCCC[C@@H](C(=O)NCCOCCOCCOCCOCCOCCC(=O)NCCNC(=O)CCCC[C@@H]2SC[C@@H]3NC(=O)N[C@@H]32)NC(=O)CNC(=O)[C@H](C(C)C)NC1=O` (single isomer, unassigned) [Ligand L1b, HGIVG], the “Avg F635, Full Centroid” value came out at 24340; the “Avg F635, Full Lane” value came out at 22519; the “avg F635, Left Part Centroid” value stood at 21889; the “avg F635, Middle Part Centroid” value is given as 24245. For the same compound, the “avg F635, Right Part Centroid” value is 26959.

Take `CC(C)[C@@H]1NC(=O)[C@H](CCC(=O)O)NC(=O)CNC(=O)[C@@H](N)Cc2cn(nn2)CCCC[C@@H](C(=O)NCCOCCOCCOCCOCCOCCC(=O)NCCNC(=O)CCCC[C@@H]2SC[C@@H]3NC(=O)N[C@@H]32)NC(=O)[C@@H]2CCCN2C(=O)[C@H](C(C)C)NC1=O` (single isomer, unassigned) [Ligand L3a, GEVVP]: the “Avg F635, Full Centroid” value came to 8117; the “Avg F635, Full Lane” value came out at 7151; the “avg F635, Left Part Centroid” value turned out to be 7137; the “avg F635, Middle Part Centroid” value came to 8430. Besides, the “avg F635, Right Part Centroid” value turned out to be 8811 and the midpoint of the response, the EC50, lay at 1.49 ± 0.28 µM.

`CC(C)[C@@H]1NC(=O)[C@@H](N)Cc2cn(nn2)CCCC[C@@H](C(=O)NCCOCCOCCOCCOCCOCCC(=O)NCCNC(=O)CCCC[C@@H]2SC[C@@H]3NC(=O)NC32)NC(=O)[C@H](Cc2ccc(O)cc2)NC(=O)[C@@H]2CCCN2C(=O)[C@H](C(C)C)NC(=O)[C@H](CCC(N)=O)NC1=O` (single isomer, unassigned) [Ligand L7a, VQVPY]: the “Avg F635, Full Centroid” value is recorded as 36651; the “Avg F635, Full Lane” value is recorded as 32992; the “avg F635, Left Part Centroid” value was found to be 32020; the “avg F635, Middle Part Centroid” value is listed as 37152. The “avg F635, Right Part Centroid” value is 40918 and the EC50 was 4.22 ± 0.71 µM.

For the compound `CC(C)[C@@H]1NC(=O)[C@H](CCC(=O)O)NC(=O)CNC(=O)[C@@H](N)Cc2cn(nn2)CCCC[C@@H](C(=O)NCCOCCOCCOCCOCCOCCC(=O)NCCNC(=O)CCCC[C@@H]2SC[C@@H]3NC(=O)N[C@@H]32)NC(=O)[C@@H]2CCCN2C(=O)[C@H](C(C)C)NC1=O` (single isomer, unassigned) [Ligand L3b, GEVVP], the “Avg F635, Full Centroid” value is reported as 16158; the “Avg F635, Full Lane” value came to 15157; the “avg F635, Left Part Centroid” value was determined as 15070; the “avg F635, Middle Part Centroid” value stood at 16390. Besides, the “avg F635, Right Part Centroid” value was 17046 and a half-maximal effect (EC50) was put at 13.7 ± 4.8 µM.

Turning to `CC(C)[C@@H]1NC(=O)[C@H](CCC(=O)O)NC(=O)[C@H](C(C)C)NC(=O)[C@@H](N)Cc2cn(nn2)CCCC[C@@H](C(=O)NCCOCCOCCOCCOCCOCCC(=O)NCCNC(=O)CCCC[C@@H]2SC[C@@H]3NC(=O)N[C@@H]32)NC(=O)[C@@H]2CCCN2C(=O)[C@H](Cc2ccc(O)cc2)NC1=O` (single isomer, unassigned) [Ligand L5a, VEVYP], the “Avg F635, Full Centroid” value is 8341; the “Avg F635, Full Lane” value is recorded as 7851; the “avg F635, Left Part Centroid” value is on record as 7918; the “avg F635, Middle Part Centroid” value is given as 8920. Also, the “avg F635, Right Part Centroid” value turned out to be 8196.

Turning to `CC(C)[C@@H]1NC(=O)[C@H](CCC(=O)O)NC(=O)[C@H](C(C)C)NC(=O)[C@@H](N)Cc2cn(nn2)CCCC[C@@H](C(=O)NCCOCCOCCOCCOCCOCCC(=O)NCCNC(=O)CCCC[C@@H]2SC[C@@H]3NC(=O)N[C@@H]32)NC(=O)[C@@H]2CCCN2C(=O)[C@H](Cc2ccc(O)cc2)NC1=O` (single isomer, unassigned) [Ligand L5b, VEVYP], the “Avg F635, Full Centroid” value amounted to 32390; the “Avg F635, Full Lane” value stood at 31581; the “avg F635, Left Part Centroid” value came to 31947; the “avg F635, Middle Part Centroid” value was 32789. The “avg F635, Right Part Centroid” value is recorded as 32448.

Regarding `CC(C)[C@@H]1NC(=O)[C@@H](N)Cc2cn(nn2)CCCC[C@@H](C(=O)NCCOCCOCCOCCOCCOCCC(=O)NCCNC(=O)CCCC[C@@H]2SC[C@@H]3NC(=O)N[C@@H]32)NC(=O)[C@H](Cc2ccc(O)cc2)NC(=O)[C@@H]2CCCN2C(=O)[C@H](C(C)C)NC(=O)[C@H](CCC(=O)O)NC1=O` (single isomer, unassigned) [Ligand L4b, VEVPY], the “Avg F635, Full Centroid” value amounted to 27245; the “Avg F635, Full Lane” value worked out at 25079; the “avg F635, Left Part Centroid” value was found to be 23307; the “avg F635, Middle Part Centroid” value is given as 27398. Moreover, the “avg F635, Right Part Centroid” value stood at 31147 and the EC50 was determined as 52.2 ± 22 µM.

Take `CC(C)[C@@H]1NC(=O)[C@@H](N)Cc2cn(nn2)CCCC[C@@H](C(=O)NCCOCCOCCOCCOCCOCCC(=O)NCCNC(=O)CCCC[C@@H]2SC[C@@H]3NC(=O)NC32)NC(=O)[C@H](Cc2ccc(O)cc2)NC(=O)[C@@H]2CCCN2C(=O)[C@H](C(C)C)NC(=O)[C@H](CCC(N)=O)NC1=O` (single isomer, unassigned) [Ligand L7b, VQVPY]: the “Avg F635, Full Centroid” value was 16195; the “Avg F635, Full Lane” value is on record as 14791; the “avg F635, Left Part Centroid” value was determined as 12956; the “avg F635, Middle Part Centroid” value worked out at 16944. The “avg F635, Right Part Centroid” value is listed as 18781 and the EC50 was determined as 25.3 ± 8.9 µM.

Regarding `CC(C)[C@@H]1NC(=O)[C@@H](N)Cc2cn(nn2)CCCC[C@@H](C(=O)NCCOCCOCCOCCOCCOCCC(=O)NCCNC(=O)CCCC[C@@H]2SC[C@@H]3NC(=O)N[C@@H]32)NC(=O)[C@H](Cc2ccc(O)cc2)NC(=O)[C@@H]2CCCN2C(=O)[C@H](C(C)C)NC(=O)[C@H](CCC(=O)O)NC1=O` (single isomer, unassigned) [Ligand L4a, VEVPY], the “Avg F635, Full Centroid” value came out at 11363; the “Avg F635, Full Lane” value turned out to be 10434; the “avg F635, Left Part Centroid” value came out at 10179; the “avg F635, Middle Part Centroid” value was 11181. The “avg F635, Right Part Centroid” value is 12764 and it took 9.51 ± 2.2 µM to reach a half-maximal effect (EC50).
